# Assay results published in ChEMBL document CHEMBL1137884, “Synthesis of ether analogues derived from HUN-7293 and evaluation as inhibitors of VCAM-1 expression” (Bioorg Med Chem Lett, 2004).
# pIC50: −log10 of the molar value. Numbered stars: 1 amine (or outer) side, 2 acyl side, 3 side chain; on linkers, the order of the positions; unused ones are H or OH. Square brackets hold non-standard residues; d marks the D form. Peptide text beside a SMILES is read from it. NMeTrp(1-OMe) = CN[C@@H](Cc1cn(OC)c2ccccc12)C(=O)O; Butanoyl(2R-oxy,4-CN) = N#CCC[C@@H](O)C(=O)O; X1 = CCCC[C@@H](C)C[C@H](N[*:1])C(=O)[*:2]; NMeL = CN[C@@H](CC(C)C)C(=O)O; NMeA = CN[C@@H](C)C(=O)O
# Experiments:
# HMEC [1] = test: inhibition of TNF-alpha-induced ICAM-1 expression in the human microvascular endothelial cell line HMEC-1; format: functional, cell-based
# HMEC [2] = test: inhibition of TNF-alpha-induced VCAM-1 expression in the human microvascular endothelial cell line HMEC-1; format: functional, cell-based
SMILES,pIC50 (HMEC [1]),pIC50 (HMEC [2])
CCCC[C@@H](C)C[C@H]1CN(C)[C@@H](C)C(=O)O[C@H](C)C(=O)N[C@@H](C[C@H](C)CCCC)C(=O)N(C)[C@@H](CC(C)C)C(=O)N[C@@H](CC(C)C)C(=O)N(C)[C@@H](Cc2cn(OC)c3ccccc23)C(=O)N1,< 4.52,7.74
CCCC[C@@H](C)C[C@@H]1NC(=O)[C@H](Cc2cn(OC)c3ccccc23)N(C)C(=O)[C@H](CC(C)C)NC(=O)[C@H](CC(C)C)N(C)C(=O)[C@H](C[C@H](C)CCCC)NC(=O)[C@@H](C)OC(=O)[C@H](C)N(C)C1=O,6.75,8.70
CCCC[C@@H](C)C[C@@H]1NC(=O)[C@H](Cc2cn(OC)c3ccccc23)N(C)C(=O)[C@H](CC(C)C)NC(=O)[C@H](CC(C)C)N(C)C(=O)[C@H](C[C@H](C)CCCC)NC(=O)COC[C@H](C)N(C)C1=O,,6.70
CCCC[C@@H](C)C[C@@H]1NC(=O)[C@H](Cc2cn(OC)c3ccccc23)N(C)C(=O)[C@H](CC(C)C)NC(=O)[C@H](CC(C)C)N(C)C(=O)[C@H](C[C@H](C)CCCC)NC(=O)[C@H](C)OC[C@H](C)N(C)C1=O,< 4.52,6.20
CCCC[C@@H](C)C[C@@H]1NC(=O)[C@H](Cc2cn(OC)c3ccccc23)N(C)C(=O)[C@H](CC(C)C)NC(=O)[C@H](CC(C)C)N(C)C(=O)[C@H](C[C@H](C)CCCC)NC(=O)[C@@H](C)OC[C@H](C)N(C)C1=O,5.78,7.82
CCCC[C@@H](C)C[C@H]1CN(C)[C@@H](C)C(=O)N[C@H](C)C(=O)N[C@@H](C[C@H](C)CCCC)C(=O)N(C)[C@@H](CC(C)C)C(=O)N[C@@H](CC(C)C)C(=O)N(C)[C@@H](Cc2cn(OC)c3ccccc23)C(=O)N1,5.16,7.04
"CCCC[C@@H](C)C[C@@H]1NC(=O)[C@H](Cc2cn(OC)c3ccccc23)N(C)C(=O)[C@H](CC(C)C)NC(=O)[C@H](CC(C)C)N(C)C(=O)[C@H](C[C@H](C)CCCC)NC(=O)[C@@H](CCC#N)OC(=O)[C@H](C)N(C)C1=O (cyclo(L[NMeTrp(1-OMe)][X1][NMeA][Butanoyl(2R-oxy,4-CN)][X1][NMeL]))",7.60,
